According to PubChem BioAssay (NCI):
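Following 48 hours of exposure in 96-well plates, responses at five concentrations were used to interpolate endpoints linearly. GI50 = concentration required for 50% inhibition of growth. TGI is the concentration that stops growth completely.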

Legend:
Assay in all cases: DTP human tumour cell line panel, 48 h
786-0 renal = system: 786-0 renal
A498 renal = system: A498 renal
A549 NSCLC = system: A549 NSCLC
ACHN renal = system: ACHN renal
BT-549 breast = system: BT-549 breast
CAKI-1 renal = system: CAKI-1 renal
CCRF-CEM leukemia = system: CCRF-CEM leukemia
COLO 205 colon = system: COLO 205 colon
DU-145 prostate = system: DU-145 prostate
EKVX NSCLC = system: EKVX NSCLC
HCC-2998 colon = system: HCC-2998 colon
HCT-116 colon = system: HCT-116 colon
HCT-15 colon = system: HCT-15 colon
HL-60(TB) leukemia = system: HL-60(TB) leukemia
HOP-62 NSCLC = system: HOP-62 NSCLC
HOP-92 NSCLC = system: HOP-92 NSCLC
HS 578T breast = system: HS 578T breast
HT29 colon = system: HT29 colon
IGROV1 ovarian = system: IGROV1 ovarian
K-562 leukemia = system: K-562 leukemia
KM12 colon = system: KM12 colon
LOX IMVI melanoma = system: LOX IMVI melanoma
M14 melanoma = system: M14 melanoma
MALME-3M melanoma = system: MALME-3M melanoma
MCF7 breast = system: MCF7 breast
MDA-MB-231 breast = system: MDA-MB-231 breast
MDA-MB-435 = system: MDA-MB-435
MOLT-4 leukemia = system: MOLT-4 leukemia
NCI-H226 lung = system: NCI-H226 lung
NCI-H23 lung = system: NCI-H23 lung
NCI-H460 lung = system: NCI-H460 lung
NCI-H522 lung = system: NCI-H522 lung
NCI/ADR-RES ovarian = system: NCI/ADR-RES ovarian
OVCAR-4 ovarian = system: OVCAR-4 ovarian
OVCAR-5 ovarian = system: OVCAR-5 ovarian
OVCAR-8 ovarian = system: OVCAR-8 ovarian
PC-3 prostate = system: PC-3 prostate
RPMI-8226 leukemia = system: RPMI-8226 leukemia
RXF 393 renal = system: RXF 393 renal
SF-268 CNS = system: SF-268 CNS
SF-295 CNS = system: SF-295 CNS
SF-539 CNS = system: SF-539 CNS
SK-MEL-28 melanoma = system: SK-MEL-28 melanoma
SK-MEL-5 melanoma = system: SK-MEL-5 melanoma
SK-OV-3 ovarian = system: SK-OV-3 ovarian
SN12C renal = system: SN12C renal
SNB-19 CNS = system: SNB-19 CNS
SNB-75 CNS = system: SNB-75 CNS
SR leukemia = system: SR leukemia
SW-620 colon = system: SW-620 colon
T-47D breast = system: T-47D breast
TK-10 renal = system: TK-10 renal
U251 CNS = system: U251 CNS
UACC-257 melanoma = system: UACC-257 melanoma
UACC-62 melanoma = system: UACC-62 melanoma
UO-31 renal = system: UO-31 renal

O=C(N/N=C\c1ccc(F)cc1)c1ccc2nc(-c3ccc(Br)cc3)[nH]c2c1
GI50 (786-0 renal): 2.03 µM | TGI (786-0 renal): 3.88 µM | GI50 (A498 renal): 1.94 µM | TGI (A498 renal): 5.31 µM | GI50 (A549 NSCLC): 1.9 µM | TGI (A549 NSCLC): 3.7 µM | GI50 (ACHN renal): 1.81 µM | TGI (ACHN renal): 3.69 µM | GI50 (BT-549 breast): 2.34 µM | TGI (BT-549 breast): 6.08 µM | GI50 (CAKI-1 renal): 2.2 µM | TGI (CAKI-1 renal): 5.41 µM | GI50 (CCRF-CEM leukemia): 3.5 µM | TGI (CCRF-CEM leukemia): 32.1 µM | GI50 (COLO 205 colon): 1.91 µM | TGI (COLO 205 colon): 4.43 µM | GI50 (DU-145 prostate): 2.07 µM | TGI (DU-145 prostate): 4.97 µM | GI50 (EKVX NSCLC): 2.09 µM | TGI (EKVX NSCLC): 4.8 µM | GI50 (HCC-2998 colon): 2.28 µM | TGI (HCC-2998 colon): 5.48 µM | GI50 (HCT-116 colon): 1.87 µM | TGI (HCT-116 colon): 3.95 µM | GI50 (HCT-15 colon): 2.19 µM | TGI (HCT-15 colon): 5.08 µM | GI50 (HL-60(TB) leukemia): 14.6 µM | TGI (HL-60(TB) leukemia): > 100 µM | GI50 (HOP-62 NSCLC): 1.86 µM | TGI (HOP-62 NSCLC): 3.72 µM | GI50 (HOP-92 NSCLC): 2.13 µM | TGI (HOP-92 NSCLC): 4.54 µM | GI50 (HS 578T breast): 2.04 µM | TGI (HS 578T breast): 5.39 µM | GI50 (HT29 colon): 1.85 µM | TGI (HT29 colon): 3.47 µM | GI50 (IGROV1 ovarian): 1.88 µM | TGI (IGROV1 ovarian): 3.89 µM | GI50 (K-562 leukemia): 2.73 µM | TGI (K-562 leukemia): 8.09 µM | GI50 (KM12 colon): 3.2 µM | TGI (KM12 colon): 15.1 µM | GI50 (LOX IMVI melanoma): 1.74 µM | TGI (LOX IMVI melanoma): 3.54 µM | GI50 (M14 melanoma): 2.08 µM | TGI (M14 melanoma): 4.52 µM | GI50 (MALME-3M melanoma): 1.65 µM | TGI (MALME-3M melanoma): 3.43 µM | GI50 (MCF7 breast): 1.7 µM | TGI (MCF7 breast): 3.88 µM | GI50 (MDA-MB-231 breast): 1.93 µM | TGI (MDA-MB-231 breast): 4.49 µM | GI50 (MDA-MB-435): 1.96 µM | TGI (MDA-MB-435): 4.12 µM | GI50 (MOLT-4 leukemia): 2.17 µM | TGI (MOLT-4 leukemia): 5.62 µM | GI50 (NCI-H226 lung): 2.62 µM | TGI (NCI-H226 lung): 16.6 µM | GI50 (NCI-H23 lung): 1.88 µM | TGI (NCI-H23 lung): 3.67 µM | GI50 (NCI-H460 lung): 1.72 µM | TGI (NCI-H460 lung): 3.27 µM | GI50 (NCI-H522 lung): 1.78 µM | TGI (NCI-H522 lung): 3.96 µM | GI50 (NCI/ADR-RES ovarian): 7.97 µM | TGI (NCI/ADR-RES ovarian): > 100 µM | GI50 (OVCAR-4 ovarian): 2.51 µM | TGI (OVCAR-4 ovarian): 7.13 µM | GI50 (OVCAR-5 ovarian): 2.28 µM | TGI (OVCAR-5 ovarian): 5.73 µM | GI50 (OVCAR-8 ovarian): 1.98 µM | TGI (OVCAR-8 ovarian): 4.14 µM | GI50 (PC-3 prostate): 1.79 µM | TGI (PC-3 prostate): 3.4 µM | GI50 (RPMI-8226 leukemia): 2.97 µM | TGI (RPMI-8226 leukemia): 9.39 µM | GI50 (RXF 393 renal): 1.74 µM | TGI (RXF 393 renal): 3.53 µM | GI50 (SF-268 CNS): 3.26 µM | TGI (SF-268 CNS): 13 µM | GI50 (SF-295 CNS): 2.18 µM | TGI (SF-295 CNS): 5.24 µM | GI50 (SF-539 CNS): 1.74 µM | TGI (SF-539 CNS): 3.42 µM | GI50 (SK-MEL-28 melanoma): 1.86 µM | TGI (SK-MEL-28 melanoma): 3.8 µM | GI50 (SK-MEL-5 melanoma): 3.25 µM | TGI (SK-MEL-5 melanoma): 13.4 µM | GI50 (SK-OV-3 ovarian): 2.09 µM | TGI (SK-OV-3 ovarian): 5.17 µM | GI50 (SN12C renal): 1.78 µM | TGI (SN12C renal): 3.63 µM | GI50 (SNB-19 CNS): 2.27 µM | TGI (SNB-19 CNS): 4.96 µM | GI50 (SNB-75 CNS): 1.87 µM | TGI (SNB-75 CNS): 4.41 µM | GI50 (SR leukemia): 2.75 µM | TGI (SR leukemia): 8.79 µM | GI50 (SW-620 colon): 1.9 µM | TGI (SW-620 colon): 3.76 µM | GI50 (T-47D breast): 1.78 µM | TGI (T-47D breast): 3.92 µM | GI50 (TK-10 renal): 2.59 µM | TGI (TK-10 renal): 5.48 µM | GI50 (U251 CNS): 1.91 µM | TGI (U251 CNS): 3.38 µM | GI50 (UACC-257 melanoma): 2.03 µM | TGI (UACC-257 melanoma): 4.48 µM | GI50 (UACC-62 melanoma): 2.69 µM | TGI (UACC-62 melanoma): 8.76 µM | GI50 (UO-31 renal): 1.6 µM | TGI (UO-31 renal): 3.31 µM
